Patent publication US7968081B2, “Peptide for diagnosing, preventing and treating atherosclerosis and uses thereof” (Kyungpook National University Industry—Academic Cooperation …, priority 2007, dated 2011)
Ends that are not written are not given here. * marks the point of attachment. FITC = O=C1OC2(c3ccc(O)cc3Oc3cc(O)ccc32)c2ccc(NC(=S)*)cc21

Legend:
[1] = tested on: atherosclerotic plaque tissues; test: In vivo atherosclerotic targeting of radioisotope-conjugated peptide (autoradiography of aortae); set-up: species or system mice; settings: tail vein, circulation 15 min
Experimental: In order to evaluate in vivo targetability of an inventive peptide through a higher sensitivity method, the peptide was synthesized and then an N-terminus of the peptide was tagged with a radioisotope (^111In). The ^111In-tagged peptide of the present invention at a dose of 160 μCi was injected via the tail vein into the blood of atherosclerotic mice and normal mice, followed by circulation for 15 min. Thereafter, aortae were removed from each mouse and autoradiography with X-ray film exposure was carried out. As a control group, the ^123I-tagged peptide (^123I-CLEVSRKNC) was injected at a dose of 104 μCi.

[2] = tested on: IL-4-induced phosphorylation of STAT6; test: IL-4-induced phosphorylation of STAT6 in THP1 monocytes differentiated into macrophages (Western blot); type: cell-based
Experimental: (§1) THP1 monocytes were treated and activated with 100 ng/mL of phorbol myristate acetate (PMA) for 3 days to thereby induce differentiation into macrophages. The culture medium was replaced with a serum-free fresh medium, and the cells were cultured for 18 hours and treated with 0.67 nM of IL-4 alone for 10 min. Meanwhile, the peptide of the present invention alone or in conjunction with IL-4 was treated at concentrations of 0.67 nM (1×, one-fold concentration that of IL-4), 6.7 nM (10×, 10-fold concentration that of IL-4) and 67 nM (100×, 100-fold concentration that of IL-4) on cells which are under the same culture phase. After the reaction was complete, cells were disrupted according to a conventional method known in the art and cell lysates were subjected to electrophoresis and Western blot analysis using antibodies. As assay antibodies, STAT6 antibody and phospho-STAT6 (P-STAT6) antibody (Cell Signaling, USA), AKT antibody and phosphor-Thr308-AKT antibody or phosphor-Ser473 AKT antibody (Santa Cruz, USA) and β-actin antibody were used.

[3] = tested on: aortic atherosclerotic plaques; test: In vivo atherosclerotic targeting of selected phage clones (phage titer recovered from aorta); set-up: species or system mice; settings: tested as phage clone; SEQ ID NO: 1 versus SEQ ID NO: 2
Experimental: (§2) C57BL/6 mice (Ldlr−/−) into which deficiency of a low-density lipoprotein (LDL) receptor was introduced by a genetic engineering technique were fed daily for 10 weeks with 3 g of high-cholesterol diet, thereby inducing atherosclerosis in animals.
Thereafter, aorta were removed from each mouse and aortic tissues were ground to collect cells. The cells were treated with 100 μl of DMEM containing 1% NP-40 at 4° C. for 10 min, and 900 μl of BL21 E. coli culture as a host was then added to recover cell-bound phages. The recover phages were subjected to titer determination by a conventional method known in the art.

[4] = tested on: IL-4-induced phosphorylation of AKT; test: IL-4-induced Thr308 and Ser473 phosphorylation of AKT in THP1 monocytes differentiated into macrophages (Western blot); type: cell-based
Experimental: as §1

[5] = tested on: atherosclerotic plaque tissues; test: In vivo atherosclerotic targeting of fluorescent dye-conjugated peptide (fluorescence microscopy of frozen sections); settings: atherosclerosis-induced mice; final blood concentration 50 μM via left ventricle, circulation 15 min
Source text: as §2, with “animals. The high-cholesterol diet was a special animal feed containing 1.25% cholesterol, 15% fat and 0.5% cholate (Oriental Yeast Co., Japan).” for “animals.”
Here, the peptide was synthesized by tagging an N-terminus of the peptide with FITC (fluorescein isothiocyanate) as a green fluorescent dye. The synthesized FITC-CRKRLDRNC peptide and a control peptide (FITC-NSSVDK) at final blood concentrations of 50 μM were injected into the atherosclerosis-induced mice via the left ventricle of animals, followed by circulation for 15 min. Thereafter, the aortae were removed from each mouse, and frozen sections were prepared, followed by Oil Red O (fat marker, Sigma-Aldrich, USA) staining or vWF (vascular endothelial cell marker, 1:5000 dilution, Abcam, USA) and Mac-3 (macrophage marker, 1:50 dilution, BD, USA) staining (Matter et al., Circulation Research, 95:1225-1233, 2004). In order to stain nuclei in tissues, a mounting medium containing a nuclear staining dye, 4′,6-diamidino-2-phenylindole (DAPI) (manufactured by Molecular Probe, USA) was treated on a slide, according to a conventional method known in the art, followed by fluorescence microscopic examination.

[6] = molecular target: T1, IL-4R (Homo sapiens, UniProt P24394); test: Bindability of peptide to HT-1376 cells with inhibited expression of IL-4R (siRNA); type: binding; set-up: HT-1376 cells that essentially show constitutive expression of IL-4R; endogenous in cells; host or cells: HT-1376; settings: same conditions as in FIG. 6 (10 μM, room temperature, 1 hour)
T1 sequence (P24394 26-825): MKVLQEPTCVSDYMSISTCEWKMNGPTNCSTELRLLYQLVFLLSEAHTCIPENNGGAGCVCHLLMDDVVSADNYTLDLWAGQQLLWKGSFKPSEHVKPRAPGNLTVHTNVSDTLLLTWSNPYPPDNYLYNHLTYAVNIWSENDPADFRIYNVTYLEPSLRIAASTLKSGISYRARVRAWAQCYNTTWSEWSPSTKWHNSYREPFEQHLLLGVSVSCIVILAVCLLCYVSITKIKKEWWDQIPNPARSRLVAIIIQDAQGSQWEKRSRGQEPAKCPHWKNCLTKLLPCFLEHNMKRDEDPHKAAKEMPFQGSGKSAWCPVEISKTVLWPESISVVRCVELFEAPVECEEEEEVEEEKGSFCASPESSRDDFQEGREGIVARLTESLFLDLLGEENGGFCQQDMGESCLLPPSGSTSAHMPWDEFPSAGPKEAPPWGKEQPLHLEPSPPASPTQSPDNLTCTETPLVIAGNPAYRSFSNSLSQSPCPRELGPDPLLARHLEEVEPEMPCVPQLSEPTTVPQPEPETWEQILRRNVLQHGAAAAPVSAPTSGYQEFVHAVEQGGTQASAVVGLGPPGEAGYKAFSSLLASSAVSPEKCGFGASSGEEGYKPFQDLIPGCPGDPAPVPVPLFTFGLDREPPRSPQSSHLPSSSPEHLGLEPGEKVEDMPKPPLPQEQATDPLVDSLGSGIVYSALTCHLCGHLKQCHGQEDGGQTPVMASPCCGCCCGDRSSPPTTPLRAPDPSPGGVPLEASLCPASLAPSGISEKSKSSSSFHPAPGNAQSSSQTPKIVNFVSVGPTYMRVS
Experimental: Silencing RNA for IL-4R (Cat. #16708A, Ambion, USA) was introduced into HT-1376 cells that essentially show constitutive expression of IL-4R, according to a conventional method known in the art, and treated for 24 hours to thereby result in substantially no expression of IL-4R, followed by evaluation of peptide binding. More specifically, 10 nM of IL-4R silencing RNA synthesized by the manufacturer was mixed with a siPORT™ NeoFX™ lipid transfection agent (Ambion, USA), and the mixture was treated for 24 hours on HT-1376 cells grown in a 4-well chamber slide, such that IL-4R silencing RNA is incorporated into the cells. Thereafter, the culture medium was replaced with one containing 10% bovine serum and the cells were recovered for 24 hours. After staining of cells with IL-4R antibodies and nuclear DAPI staining under the same conditions as in FIG. 6, a cellular expression level of IL-4R was examined. After IL-4R staining, the FITC-CRKRLDRNC peptide was reacted with the cells under the same conditions as in FIG. 6, and a binding degree of the peptide was measured.

[7] = molecular target: T1, IL-4R; test: Bindability of peptide to IL-4R-expressing CHO-K1 cells (fluorescence microscopy); type: binding; settings: 10 μM peptide, room temperature, 1 hour
Source text: In order to further confirm roles of IL-4R as the receptor for the peptide of the present invention, a plasmid capable of expressing IL-4R (Cat. #TC119877, Origene, USA) was introduced into IL-4R-deficient CHO-K1 cells according to a conventional method known in the art, followed by expression of IL-4R, and binding of IL-4R with the peptide of the present invention was examined.
The cells were stained with antibodies (1:200 dilution) directed against. IL-4R and cell nuclei were stained with DAPI, followed by fluorescence microscopic examination. As a result, a large amount of IL-4R (red fluorescence) was present on the cell surface (FIG. 6B). Next, CHO-K1 and CHO-K1/IL-4R cells were reacted with 10 μM of the FITC-C-RKRLDRNC peptide at room temperature for 1 hour.

[8] = peptide at 100-fold concentration

^123I-CLEVSRKNC (not fully specified (N-terminus); cysteine pairing not given here; also: 123I label, attachment not given here) [123I-tagged control peptide for autoradiography]
radioactivity resulting from aortic targeting of the peptide ([1]; aortae of atherosclerotic mice, 160 μCi (111In peptide) or 104 μCi (123I control)): substantially no detection of radioactivity
radioactivity resulting from aortic targeting of the peptide ([1]; aortae of normal mice, 104 μCi (123I control)): substantially no detection of radioactivity

CRKRLDRNC (peptide 1, completely synthesized) [peptide of the present invention]
effect on IL-4-induced phosphorylation of STAT6 ([2]; peptide at 100-fold concentration that of IL-4 (67 nM) with 0.67 nM IL-4): significant inhibitory effects
amount of total STAT6 proteins ([2]; peptide with IL-4): not affected
atherosclerotic targeting, comparison of the two selected phage clones [3]: more intense atherosclerotic targeting
antagonistic effect on Ser473 phosphorylation of AKT relative to Thr308 [4, 8]: greater antagonistic effects
level of Ser473 phosphorylation of AKT versus control group not treated with IL-4 [4, 8]: inhibited to a lower level than that of the control group
effect on IL-4-induced phosphorylation of AKT (Thr308 and Ser473) ([4]; peptide at 100-fold concentration (67 nM) with 0.67 nM IL-4): inhibited

FITC-NSSVDK ({FITC}-NSSVDK) [FITC-labeled control peptide, reference compound]
peptide found in aortic atherosclerotic plaque tissues (green fluorescence) [5]: substantially no control peptide was found
binding to HT-1376 cells (constitutive expression of IL-4R) [6]: almost no binding
binding to CHO-K1/IL-4R cells (IL-4R-expressing) [7]: no binding

B1: IL-4: cytokine used as stimulus of STAT6 and AKT phosphorylation (protein)
chain: HKCDITLQEIIKTLNSLTEQKTLCTELTVTDIFAASKNTTEKETFCRAATVLRQFYSHHEKDTRCLGATAQQFHRHKQLIRFLKRLDRNLWGLAGLNSCPVKEANQSTLENFLERLKTIMREKYSKCSS
phosphorylation of STAT6 induced by IL-4 ([2]; 0.67 nM IL-4 alone, 10 min): significant increase
Thr308 and Ser473 phosphorylation of AKT induced by IL-4 ([4]; 0.67 nM IL-4, 10 min): slightly increased
